From patent EP0556789A2, “Substituted biphenyl derivatives, therapeutic agents containing them and process for their preparation” (Dr. Karl Thomae GmbH, priority 1992, dated 1993) come the findings set out here.

The experiment addresses T1, Angiotensin II-Rezeptor (Rattus norvegicus, UniProt P25095).
T1 construct: Das Gewebe (Rattenlunge) wird in Tris-Puffer; from tissue; host or cells: rat lung (membrane pellet of the homogenate)
T1 sequence (P25095 1-359): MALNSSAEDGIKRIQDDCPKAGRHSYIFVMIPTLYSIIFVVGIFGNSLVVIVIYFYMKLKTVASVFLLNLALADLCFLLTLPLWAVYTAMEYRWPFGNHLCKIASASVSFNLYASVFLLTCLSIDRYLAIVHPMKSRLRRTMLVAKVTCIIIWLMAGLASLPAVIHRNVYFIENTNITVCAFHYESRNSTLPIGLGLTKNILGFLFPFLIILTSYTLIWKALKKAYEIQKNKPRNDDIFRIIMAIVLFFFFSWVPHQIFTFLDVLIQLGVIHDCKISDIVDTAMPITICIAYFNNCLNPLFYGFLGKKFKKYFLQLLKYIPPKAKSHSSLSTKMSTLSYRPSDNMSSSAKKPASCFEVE
As to the kind of experiment: Angiotensin II receptor binding ([125I]-angiotensin II displacement, rat lung homogenate). Also on record: species or system Ratte. Particulars: Rattenlunge homogenate, 50 pM [125I]-Angiotensin II, 60 min at 37 °C. The method, then: Methodenbeschreibung Angiotensin II-Rezeptorbindung
Das Gewebe (Rattenlunge) wird in Tris-Puffer (50 mMol Tris, 150 mMol NaCI, 5 mMol EDTA, pH 7.40) homogenisiert und zweimal je 20 Min. bei 20.000 x g zentrifugiert. Das endgültige Pellet wird in Inkubations-Puffer (50 mMol Tris, 5 mMol MgCI2, 0,2 % BSA, pH 7.40) 1:75, bezogen auf das Feuchtgewicht des Gewebes, resuspendiert. Je 0,1 ml Homogenat wird für 60 Min. bei 37 ° C mit 50 pM [125']-Angiotensin II (NEN, Dreieich, FRG) und steigenden Konzentrationen der Testsubstanz in einem Gesamtvolumen von 0,25 ml inkubiert. Die Inkubation wird durch rasche Filtration durch Glasfiber-Filtermatten beendet. Die Filter werden je 4 ml eiskaltem Puffer (25 mMol Tris, 2.5 mMol MgCI2, 0,1 % BSA, pH 7,40) gewaschen. Die gebundene Radioaktivität wird in einem Gamma-Counter ermittelt. Aus der Dosis-Wirkungskurve wird der entsprechende 1C50-Wert ermittelt.
Turning to `CCCc1nc2c(C)cccc2n1Cc1ccc(-c2ccccc2)c(Cc2nnn[nH]2)c1` [Substanz A, 2-n-Propyl-4-methyl-1-[3-(tetrazol-5-yl-methyl)-4-phenyl-benzyl]-benzimidazol], the IC50 (as a rule, the midpoint of a concentration-inhibition curve) came to 370 nM. In the case of `CCCc1nc2c(C)cccc2n1Cc1ccc(-c2ccccc2)c(CCC(=O)O)c1` [Substanz B, 2-n-Propyl-4-methyl-1-[3-(2-hydroxycarbonyl-ethyl)-4-phenyl-benzyl]-benzimidazol], the IC50 came to 270 nM.

As for `CCCc1nc2c(C)cc(-c3nc4ccccc4n3C)cc2n1Cc1ccc(-c2ccccc2)c(CCC(=O)O)c1` [Substanz C, 2-n-Propyl-4-methyl-6-(1-methyl-benzimidazol-2-yl)-1-[3-(2-hydroxycarbonyl-ethyl)-4-phenyl-benzyl]-benzimidazol], the 50% inhibitory concentration (IC50) was 18 nM. In the case of `CCc1nc2c(C)cc(C)nc2n1Cc1ccc(-c2ccccc2)c(Cc2nnn[nH]2)c1` [Substanz D, 2-Ethyl-5,7-dimethyl-3-[3-(tetrazol-5-yl-methyl)-4-phenyl-benzyl]-imidazo[4,5-b]pyridin], the 50% inhibitory concentration (IC50) worked out at 73 nM.

`CCCc1nc2c(C)cc(-c3cn(C(C)C)cn3)cc2n1Cc1ccc(-c2ccccc2)c(CCc2nnn[nH]2)c1` [Substanz E, 2-n-Propyl-4-methyl-6-(1-isopropyl-imidazol-4-yl)-1-[3-(2-tetrazol-5-yl-ethyl)-4-phenyl-benzyl]-benzimidazol]: the IC50 came to 6.9 nM.
